In PubChem BioAssay (NCI):
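96-well plates; 48 h exposure; 5 concentrations. Endpoints by linear interpolation between flanking doses. Not reached: highest tested concentration assigned. TGI is the concentration that stops growth completely.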

Experiments:
Experiment in all cases: DTP human tumour cell line panel, 48 h
786-0 renal = test system: 786-0 renal
CAKI-1 renal = test system: CAKI-1 renal
CCRF-CEM leukemia = test system: CCRF-CEM leukemia
COLO 205 colon = test system: COLO 205 colon
DU-145 prostate = test system: DU-145 prostate
EKVX NSCLC = test system: EKVX NSCLC
HCT-116 colon = test system: HCT-116 colon
HT29 colon = test system: HT29 colon
K-562 leukemia = test system: K-562 leukemia
LOX IMVI melanoma = test system: LOX IMVI melanoma
MDA-MB-435 = test system: MDA-MB-435
NCI-H226 lung = test system: NCI-H226 lung
SK-MEL-28 melanoma = test system: SK-MEL-28 melanoma
SK-MEL-5 melanoma = test system: SK-MEL-5 melanoma
SN12C renal = test system: SN12C renal
T-47D breast = test system: T-47D breast
U251 CNS = test system: U251 CNS
UACC-257 melanoma = test system: UACC-257 melanoma
UO-31 renal = test system: UO-31 renal
A498 renal = test system: A498 renal

| Compound | TGI (786-0 renal) [µM] | TGI (CAKI-1 renal) [µM] | TGI (CCRF-CEM leukemia) [µM] | TGI (COLO 205 colon) [µM] | TGI (DU-145 prostate) [µM] | TGI (EKVX NSCLC) [µM] | TGI (HCT-116 colon) [µM] | TGI (HT29 colon) [µM] | TGI (K-562 leukemia) [µM] | TGI (LOX IMVI melanoma) [µM] | TGI (MDA-MB-435) [µM] | TGI (NCI-H226 lung) [µM] | TGI (SK-MEL-28 melanoma) [µM] | TGI (SK-MEL-5 melanoma) [µM] | TGI (SN12C renal) [µM] | TGI (T-47D breast) [µM] | TGI (U251 CNS) [µM] | TGI (UACC-257 melanoma) [µM] | TGI (UO-31 renal) [µM] | TGI (A498 renal) [µM] |
| --- | --- | --- | --- | --- | --- | --- | --- | --- | --- | --- | --- | --- | --- | --- | --- | --- | --- | --- | --- | --- |
| CC(=O)OCC(OC(C)=O)C(OC(C)=O)C(OC(C)=O)C(/C=N\Nc1nc2ccccc2c(=O)[nH]1)=N/Nc1nc2ccccc2c(=O)[nH]1 (stereo not drawn) | > 100 | > 100 | > 100 | > 100 | > 100 | > 100 | > 100 | > 100 | > 100 | > 100 | > 100 | > 100 | > 100 | > 100 | > 100 | > 100 | > 100 | > 100 | > 100 | – |
| O=C1CN(c2ccc(Cl)cc2)C(=O)CN1NCNN1CC(=O)N(c2ccc(Cl)cc2)CC1=O | > 100 | > 100 | > 100 | > 100 | > 100 | > 100 | > 100 | > 100 | – | – | > 100 | – | > 100 | > 100 | > 100 | – | > 100 | > 100 | > 100 | > 100 |
| O=C1[C@H](Cl)[C@H]2c3cc4ccccc4nc3Oc3ccccc3N12 | > 100 | > 100 | > 100 | > 100 | – | > 100 | 58 | > 100 | – | > 100 | – | > 100 | > 100 | > 100 | > 100 | – | > 100 | > 100 | 72.6 | > 100 |
| COC(=O)c1c2c(cc3c1CC1(Cc4cc5c(cc4C1)CCC5)C3)CCC2 | > 100 | > 100 | > 100 | – | > 100 | > 100 | > 100 | > 100 | > 100 | > 100 | > 100 | – | > 100 | > 100 | – | > 100 | > 100 | > 100 | > 100 | > 100 |
| CN(C)CCCNC(=O)c1cc(NC(=O)c2cc(NC(=O)[C@@H]3C[C@H]3C(=O)Nc3cc(C(=O)Nc4cc(C(=O)NCCCN(C)C)n(C)c4)n(C)c3)cn2C)cn1C | > 100 | > 100 | > 100 | > 100 | > 100 | > 100 | > 100 | > 100 | > 100 | > 100 | > 100 | > 100 | > 100 | > 100 | > 100 | – | > 100 | > 100 | – | – |
| NC(N)=NS(=O)(=O)c1ccc(NC(=O)c2ccc3[nH]c4ccccc4c(=O)c3c2)cc1 | > 100 | > 100 | > 100 | > 100 | > 100 | > 100 | > 100 | > 100 | > 100 | > 100 | > 100 | > 100 | > 100 | > 100 | > 100 | > 100 | > 100 | > 100 | > 100 | – |
| CC(O[Si](c1ccccc1)(c1ccccc1)C(C)(C)C)[C@H](NC(=O)OC(C)(C)C)C(=O)O (stereo partly drawn) | > 100 | > 100 | > 100 | 46.1 | – | > 100 | > 100 | > 100 | > 100 | – | – | – | > 100 | 50.8 | – | > 100 | > 100 | > 100 | > 100 | > 100 |
| COc1ccc(/C=C2/CCS(=O)(=O)c3ccc(C)cc3C2=O)cc1OC | 27.7 | 47.5 | 69.8 | 28.4 | 15.1 | 40.3 | 21.8 | 27.6 | > 100 | 20.4 | 71.6 | 70.8 | 56.5 | – | 73.9 | 45.1 | 42 | 25.4 | 20.1 | – |
| O=C(O)CC1CC=C[C@H]2c3cc4c(cc3C(=O)NC12)OCO4 (stereo partly drawn) | > 75 | – | > 75 | > 75 | – | > 75 | > 75 | – | > 75 | > 75 | – | > 75 | > 75 | – | > 75 | – | > 75 | > 75 | > 75 | – |
| COc1cc(C23OCC(Cc4cc5c(cc42)OCO5)C3CO)cc(OC)c1OC (stereo not drawn) | > 100 | > 100 | > 100 | > 100 | > 100 | > 100 | > 100 | > 100 | > 100 | 13.2 | – | > 100 | > 100 | > 100 | – | > 100 | 43.8 | > 100 | > 100 | > 100 |
| CC(=O)ON(C(C)=O)C1C(COC(c2ccccc2)(c2ccccc2)c2ccccc2)OC2OC3(CCCC3)OC21 (stereo not drawn) | > 75.2 | > 100 | > 100 | > 100 | – | > 100 | > 100 | > 100 | > 100 | 21.3 | – | > 100 | > 100 | > 100 | > 100 | – | > 100 | > 100 | > 100 | > 100 |
| CC(=N)N(C)O | > 100 | – | 53.1 | 33.2 | – | > 100 | > 100 | > 100 | > 100 | 31.3 | – | > 100 | > 100 | > 100 | > 100 | – | > 100 | > 100 | > 100 | > 100 |
| CC(C)(C)NC(=O)C12C3C4C1C1C2C3C41C(=O)NC(C)(C)C (stereo not drawn) | > 100 | > 100 | > 100 | > 100 | > 100 | > 100 | > 100 | > 100 | > 100 | > 100 | > 100 | – | > 100 | > 100 | > 100 | > 100 | > 100 | > 100 | > 100 | > 100 |
| O=C1/C(=C/c2cccs2)NC(=S)N1CN1CCCC(CO)C1 (stereo not drawn) | > 100 | – | > 100 | > 100 | > 100 | > 100 | > 100 | > 100 | > 100 | > 100 | > 100 | > 100 | > 100 | > 100 | > 100 | – | > 100 | > 100 | > 100 | > 100 |
| O=C(O)CCC(NC(=O)c1ccc(CNc2nc3ccccc3nc2C(=O)O)cc1)C(=O)O (stereo not drawn) | > 100 | – | > 100 | > 100 | > 100 | > 100 | > 100 | > 100 | > 100 | > 100 | > 100 | > 100 | > 100 | > 100 | > 100 | – | > 100 | > 100 | > 100 | > 100 |
| CC1=NN(C(=O)c2ccc(Cl)cc2)C(=O)/C1=C/c1ccco1 | > 100 | > 100 | > 100 | > 100 | – | > 100 | > 100 | > 100 | > 100 | > 100 | – | – | > 100 | > 100 | > 100 | – | > 100 | > 100 | > 100 | > 100 |
| CC1(C)CN=C(Nc2ccc(F)c(F)c2)S1 | > 100 | > 100 | > 100 | > 100 | > 100 | > 100 | > 100 | > 100 | > 100 | > 100 | > 100 | > 100 | > 100 | > 100 | > 100 | > 100 | > 100 | > 100 | > 100 | – |
| C=C1CC(COc2ccc3c(C)cc(=O)oc3c2)(c2ccccc2)OC1=O (stereo not drawn) | 2.79 | 3.55 | – | 2.76 | 6.68 | 25.2 | 2.73 | 2.96 | – | 3.1 | 8.03 | 15.7 | 8.37 | 5.49 | 21.1 | – | 23.6 | 3.9 | 14.5 | 14.1 |
| O=[N+]([O-])c1cccc2nc3ccccc3c(NCCCN3CCCCC3)c12 | 0.0492 | 0.496 | – | 0.0201 | 0.0295 | 0.0401 | 0.0629 | 0.326 | 1.12 | 0.0562 | 0.0227 | 0.0553 | – | 0.0221 | 0.0443 | 0.182 | 0.0734 | 0.0446 | – | < 0.0219 |
| BrCC(Br)(c1ccccc1)c1ccccc1-c1cc(-c2ccccc2)cc(-c2ccccc2)n1 (stereo not drawn) | 13.8 | 23.4 | > 53.3 | 2.81 | > 45.5 | > 100 | 12.3 | 6.65 | 8.69 | 5.88 | 4.63 | 15.1 | 25.3 | 3.82 | 28 | – | 5.85 | 8.92 | 26.8 | 15.6 |
| CC(=O)Oc1c2oc3cc(O)c(O)cc3c2c(OC(C)=O)c2oc3cc(O)c(O)cc3c12 | > 100 | 97.2 | > 100 | 33.5 | – | 40.1 | 38.2 | 70.9 | > 100 | > 100 | 3.81 | 39.2 | 41.5 | 38.3 | 58.6 | – | 3.44 | 38.8 | 42 | – |
| O=C(Nc1nc(C23CC4CC(CC(C4)C2)C3)cs1)c1cc2c(ccc3ccccc32)oc1=O | > 100 | > 100 | > 100 | > 100 | > 100 | > 100 | > 100 | > 100 | > 100 | > 100 | > 100 | > 100 | > 100 | > 100 | > 100 | – | > 100 | > 100 | > 100 | > 100 |
| COC(=O)C(=O)C(C(=O)C(=O)Nc1ccc(C)cc1)c1nc2ccc(C(=O)c3ccccc3)cc2[nH]c1=O (stereo not drawn) | > 100 | > 100 | > 100 | – | – | > 100 | > 100 | > 100 | > 100 | > 100 | > 100 | > 100 | > 100 | > 100 | > 100 | > 100 | > 100 | > 100 | > 100 | > 100 |
| O=C1NC(S(=O)(=O)O)=NNC12c1ccccc1-c1ccccc12 | > 10 | > 10 | > 10 | > 10 | > 10 | > 10 | > 10 | > 10 | > 10 | > 10 | > 10 | > 10 | > 10 | > 10 | > 10 | > 10 | – | > 10 | > 10 | – |
| CC(=O)O[C@@H]1O[Si](C(C)(C)C)(C(C)(C)C)[C@H](C)[C@H]1C | > 100 | > 100 | > 100 | > 100 | – | > 100 | > 100 | 55.6 | > 100 | > 100 | > 100 | > 100 | > 100 | > 100 | > 100 | > 100 | > 100 | > 100 | > 100 | > 100 |
| CCOC(=O)NC(=S)c1ccc(O)c2ccccc12 | > 100 | > 100 | 46.7 | > 100 | > 100 | > 100 | > 100 | > 100 | > 100 | > 100 | > 100 | – | > 100 | > 100 | – | > 100 | > 100 | > 100 | > 100 | > 100 |
